Assay results taken from publication PMC11345841, “Exploring 2-Sulfonylpyrimidine Warheads as Acrylamide Surrogates for Targeted Covalent Inhibition: A BTK Story” (Journal of Medicinal Chemistry, 2024).
Where two headings read alike, the source gives them in different places.

Experiments:
Assay in all cases: KINOMEscan ScanTK
Assay type in all cases: binding
ABL2 = target: T1, ABL2 (Homo sapiens, UniProt P42684)
T1 construct: purchased Eurofins DiscoverX KINOMEscan (scanTK)

[1] = target: T2, JAK1(JH1domain-catalytic) (Homo sapiens, UniProt P23458)
T2 construct: JAK1(JH1domain-catalytic); purchased Eurofins DiscoverX KINOMEscan (scanTK)

FLT3(ITD) = test system: FLT3(ITD)
FGR = target: T3, FGR (Homo sapiens, UniProt P09769)
T3 construct: purchased Eurofins DiscoverX KINOMEscan (scanTK)

PDGFRB = target: T4, PDGFRB (Homo sapiens, UniProt P09619)
T4 construct: purchased Eurofins DiscoverX KINOMEscan (scanTK)

EPHA1 = target: T5, EPHA1 (Homo sapiens, UniProt P21709)
T5 construct: purchased Eurofins DiscoverX KINOMEscan (scanTK)
T5 sequence (P21709 26-976): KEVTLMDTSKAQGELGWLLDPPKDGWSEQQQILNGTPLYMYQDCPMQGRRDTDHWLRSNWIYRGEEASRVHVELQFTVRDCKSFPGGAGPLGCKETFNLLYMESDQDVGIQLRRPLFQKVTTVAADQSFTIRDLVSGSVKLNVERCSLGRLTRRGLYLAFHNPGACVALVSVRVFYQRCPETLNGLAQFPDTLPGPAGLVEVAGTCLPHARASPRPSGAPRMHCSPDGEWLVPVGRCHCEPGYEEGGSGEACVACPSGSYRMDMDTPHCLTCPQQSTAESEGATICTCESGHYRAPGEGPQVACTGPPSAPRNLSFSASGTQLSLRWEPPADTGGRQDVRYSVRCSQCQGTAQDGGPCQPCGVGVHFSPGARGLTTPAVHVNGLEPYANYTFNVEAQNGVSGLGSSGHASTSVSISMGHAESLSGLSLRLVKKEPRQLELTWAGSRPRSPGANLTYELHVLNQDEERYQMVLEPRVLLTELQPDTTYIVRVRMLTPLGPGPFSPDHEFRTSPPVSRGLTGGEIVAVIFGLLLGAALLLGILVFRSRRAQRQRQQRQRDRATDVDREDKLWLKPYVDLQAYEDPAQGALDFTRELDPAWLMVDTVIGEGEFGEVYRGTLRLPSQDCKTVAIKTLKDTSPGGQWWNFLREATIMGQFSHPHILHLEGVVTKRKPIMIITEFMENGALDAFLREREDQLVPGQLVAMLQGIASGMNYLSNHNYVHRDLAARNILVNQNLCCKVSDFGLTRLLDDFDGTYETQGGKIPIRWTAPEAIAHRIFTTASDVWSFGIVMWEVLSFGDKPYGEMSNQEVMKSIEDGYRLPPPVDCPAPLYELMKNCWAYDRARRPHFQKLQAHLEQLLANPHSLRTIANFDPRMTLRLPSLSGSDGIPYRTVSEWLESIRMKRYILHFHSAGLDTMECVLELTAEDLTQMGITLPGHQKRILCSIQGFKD

FGFR2 = target: T6, FGFR2 (Homo sapiens, UniProt P21802)
T6 construct: purchased Eurofins DiscoverX KINOMEscan (scanTK)

[2] = target: T7, JAK2(JH1domain-catalytic) (Homo sapiens, UniProt O60674)
T7 construct: JAK2(JH1domain-catalytic); purchased Eurofins DiscoverX KINOMEscan (scanTK)

FYN = target: T8, FYN (Homo sapiens, UniProt P06241)
T8 construct: purchased Eurofins DiscoverX KINOMEscan (scanTK)

KIT(D816V) = target: T9, KIT(D816V) (Homo sapiens, UniProt P10721, D816V)
T9 construct: purchased Eurofins DiscoverX KINOMEscan (scanTK)

ROS1 = target: T10, ROS1 (Homo sapiens, UniProt P08922)
T10 construct: purchased Eurofins DiscoverX KINOMEscan (scanTK)

ABL1-phosphorylated = target: T11, ABL1-phosphorylated (Homo sapiens, UniProt P00519)
T11 construct: purchased Eurofins DiscoverX KINOMEscan (scanTK)

EGFR(L858R,T790M) = target: T12, EGFR(L858R,T790M) (Homo sapiens, UniProt P00533, L858R/T790M)
T12 construct: purchased Eurofins DiscoverX KINOMEscan (scanTK)

YES = target: T13, YES (Homo sapiens, UniProt P07947)
T13 construct: purchased Eurofins DiscoverX KINOMEscan (scanTK)

EGFR(S752-I759del) = target: T14, EGFR(S752-I759del) (Homo sapiens, UniProt P00533, DEL752-759)
T14 construct: purchased Eurofins DiscoverX KINOMEscan (scanTK)

T10 sequence (P08922 28-2347): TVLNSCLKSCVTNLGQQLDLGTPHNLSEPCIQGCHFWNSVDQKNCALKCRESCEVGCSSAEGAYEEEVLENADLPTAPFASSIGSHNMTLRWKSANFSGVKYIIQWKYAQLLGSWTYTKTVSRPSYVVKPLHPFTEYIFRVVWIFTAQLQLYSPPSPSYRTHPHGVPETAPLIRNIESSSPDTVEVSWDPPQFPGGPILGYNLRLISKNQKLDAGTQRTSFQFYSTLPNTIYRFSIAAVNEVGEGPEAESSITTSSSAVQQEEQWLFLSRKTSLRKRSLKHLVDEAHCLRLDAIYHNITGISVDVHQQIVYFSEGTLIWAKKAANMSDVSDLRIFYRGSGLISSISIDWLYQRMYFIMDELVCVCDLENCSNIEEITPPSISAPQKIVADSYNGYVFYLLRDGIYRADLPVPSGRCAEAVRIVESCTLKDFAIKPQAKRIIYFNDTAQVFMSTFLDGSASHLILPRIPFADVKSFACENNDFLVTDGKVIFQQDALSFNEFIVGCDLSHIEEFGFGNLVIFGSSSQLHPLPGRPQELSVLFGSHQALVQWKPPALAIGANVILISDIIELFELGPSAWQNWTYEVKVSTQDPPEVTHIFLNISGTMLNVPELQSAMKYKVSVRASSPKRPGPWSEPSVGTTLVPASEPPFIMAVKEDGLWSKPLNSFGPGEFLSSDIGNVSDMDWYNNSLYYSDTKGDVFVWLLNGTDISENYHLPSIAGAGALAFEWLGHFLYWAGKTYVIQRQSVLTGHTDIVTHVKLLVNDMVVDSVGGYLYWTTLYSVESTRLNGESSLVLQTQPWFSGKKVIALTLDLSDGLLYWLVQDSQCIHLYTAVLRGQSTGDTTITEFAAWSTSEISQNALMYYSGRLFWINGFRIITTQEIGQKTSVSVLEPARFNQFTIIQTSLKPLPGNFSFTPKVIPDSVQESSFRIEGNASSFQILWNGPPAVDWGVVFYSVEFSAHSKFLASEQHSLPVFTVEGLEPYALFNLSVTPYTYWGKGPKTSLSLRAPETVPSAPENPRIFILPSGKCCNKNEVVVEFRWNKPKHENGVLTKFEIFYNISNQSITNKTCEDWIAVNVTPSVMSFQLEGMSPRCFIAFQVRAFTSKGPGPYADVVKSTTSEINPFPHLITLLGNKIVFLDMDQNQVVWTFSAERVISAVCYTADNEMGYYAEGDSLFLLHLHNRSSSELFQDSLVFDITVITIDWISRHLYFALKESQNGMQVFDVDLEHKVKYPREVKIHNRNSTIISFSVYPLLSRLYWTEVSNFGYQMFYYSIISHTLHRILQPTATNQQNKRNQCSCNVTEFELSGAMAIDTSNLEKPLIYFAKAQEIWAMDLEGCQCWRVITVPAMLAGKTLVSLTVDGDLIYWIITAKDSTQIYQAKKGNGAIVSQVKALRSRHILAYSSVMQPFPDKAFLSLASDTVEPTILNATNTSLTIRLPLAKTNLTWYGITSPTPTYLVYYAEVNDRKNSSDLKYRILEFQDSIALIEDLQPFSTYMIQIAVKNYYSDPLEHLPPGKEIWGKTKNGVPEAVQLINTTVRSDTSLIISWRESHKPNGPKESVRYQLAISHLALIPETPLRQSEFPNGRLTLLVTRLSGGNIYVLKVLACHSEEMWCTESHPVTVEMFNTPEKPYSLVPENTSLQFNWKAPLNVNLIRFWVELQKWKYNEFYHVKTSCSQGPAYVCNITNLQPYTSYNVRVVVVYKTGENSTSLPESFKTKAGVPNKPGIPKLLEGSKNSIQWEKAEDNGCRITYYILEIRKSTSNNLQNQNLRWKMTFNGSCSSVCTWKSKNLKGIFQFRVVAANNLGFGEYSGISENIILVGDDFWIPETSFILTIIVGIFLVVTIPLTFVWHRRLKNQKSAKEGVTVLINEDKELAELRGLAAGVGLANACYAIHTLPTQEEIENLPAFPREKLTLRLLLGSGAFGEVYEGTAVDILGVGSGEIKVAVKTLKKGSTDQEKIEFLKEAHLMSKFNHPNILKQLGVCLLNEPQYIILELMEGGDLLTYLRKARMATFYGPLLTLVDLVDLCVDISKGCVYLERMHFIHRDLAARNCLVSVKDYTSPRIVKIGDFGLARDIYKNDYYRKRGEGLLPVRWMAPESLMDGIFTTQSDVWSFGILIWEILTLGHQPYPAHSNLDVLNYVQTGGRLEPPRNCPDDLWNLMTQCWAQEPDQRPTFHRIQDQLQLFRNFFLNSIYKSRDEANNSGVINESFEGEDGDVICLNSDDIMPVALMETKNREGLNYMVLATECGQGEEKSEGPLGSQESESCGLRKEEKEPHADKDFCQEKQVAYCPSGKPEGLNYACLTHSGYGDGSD
T1 sequence (P42684 whole entry): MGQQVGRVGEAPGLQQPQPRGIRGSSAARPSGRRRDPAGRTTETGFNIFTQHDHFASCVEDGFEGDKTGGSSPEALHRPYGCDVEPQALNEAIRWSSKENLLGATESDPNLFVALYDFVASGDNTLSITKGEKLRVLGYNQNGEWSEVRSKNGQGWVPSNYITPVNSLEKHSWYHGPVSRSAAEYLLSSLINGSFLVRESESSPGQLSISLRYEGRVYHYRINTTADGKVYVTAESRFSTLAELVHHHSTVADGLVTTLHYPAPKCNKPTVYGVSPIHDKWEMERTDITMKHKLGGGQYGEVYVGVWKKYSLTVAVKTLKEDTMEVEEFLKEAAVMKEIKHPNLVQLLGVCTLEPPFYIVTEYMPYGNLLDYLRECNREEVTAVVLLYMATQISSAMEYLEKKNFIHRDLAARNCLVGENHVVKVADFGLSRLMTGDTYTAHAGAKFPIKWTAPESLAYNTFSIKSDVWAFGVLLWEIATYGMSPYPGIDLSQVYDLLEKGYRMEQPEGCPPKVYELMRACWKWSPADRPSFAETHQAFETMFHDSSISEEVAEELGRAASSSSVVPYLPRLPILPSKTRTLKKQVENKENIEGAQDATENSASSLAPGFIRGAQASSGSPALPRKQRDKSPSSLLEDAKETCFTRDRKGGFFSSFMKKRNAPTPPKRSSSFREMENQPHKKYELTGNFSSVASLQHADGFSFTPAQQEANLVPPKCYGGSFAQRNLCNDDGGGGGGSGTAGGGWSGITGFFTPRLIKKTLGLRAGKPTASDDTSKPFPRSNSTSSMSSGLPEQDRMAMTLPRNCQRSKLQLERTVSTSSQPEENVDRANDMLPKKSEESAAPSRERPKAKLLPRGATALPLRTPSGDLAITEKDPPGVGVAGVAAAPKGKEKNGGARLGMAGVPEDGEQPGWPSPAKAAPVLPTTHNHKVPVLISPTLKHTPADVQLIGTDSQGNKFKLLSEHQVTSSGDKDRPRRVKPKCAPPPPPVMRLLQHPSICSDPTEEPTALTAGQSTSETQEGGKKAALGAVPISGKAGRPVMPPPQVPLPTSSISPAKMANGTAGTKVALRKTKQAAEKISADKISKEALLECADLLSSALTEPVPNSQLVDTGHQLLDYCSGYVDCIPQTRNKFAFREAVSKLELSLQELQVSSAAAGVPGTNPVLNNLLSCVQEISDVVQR
T9 sequence (P10721 26-976 D816V): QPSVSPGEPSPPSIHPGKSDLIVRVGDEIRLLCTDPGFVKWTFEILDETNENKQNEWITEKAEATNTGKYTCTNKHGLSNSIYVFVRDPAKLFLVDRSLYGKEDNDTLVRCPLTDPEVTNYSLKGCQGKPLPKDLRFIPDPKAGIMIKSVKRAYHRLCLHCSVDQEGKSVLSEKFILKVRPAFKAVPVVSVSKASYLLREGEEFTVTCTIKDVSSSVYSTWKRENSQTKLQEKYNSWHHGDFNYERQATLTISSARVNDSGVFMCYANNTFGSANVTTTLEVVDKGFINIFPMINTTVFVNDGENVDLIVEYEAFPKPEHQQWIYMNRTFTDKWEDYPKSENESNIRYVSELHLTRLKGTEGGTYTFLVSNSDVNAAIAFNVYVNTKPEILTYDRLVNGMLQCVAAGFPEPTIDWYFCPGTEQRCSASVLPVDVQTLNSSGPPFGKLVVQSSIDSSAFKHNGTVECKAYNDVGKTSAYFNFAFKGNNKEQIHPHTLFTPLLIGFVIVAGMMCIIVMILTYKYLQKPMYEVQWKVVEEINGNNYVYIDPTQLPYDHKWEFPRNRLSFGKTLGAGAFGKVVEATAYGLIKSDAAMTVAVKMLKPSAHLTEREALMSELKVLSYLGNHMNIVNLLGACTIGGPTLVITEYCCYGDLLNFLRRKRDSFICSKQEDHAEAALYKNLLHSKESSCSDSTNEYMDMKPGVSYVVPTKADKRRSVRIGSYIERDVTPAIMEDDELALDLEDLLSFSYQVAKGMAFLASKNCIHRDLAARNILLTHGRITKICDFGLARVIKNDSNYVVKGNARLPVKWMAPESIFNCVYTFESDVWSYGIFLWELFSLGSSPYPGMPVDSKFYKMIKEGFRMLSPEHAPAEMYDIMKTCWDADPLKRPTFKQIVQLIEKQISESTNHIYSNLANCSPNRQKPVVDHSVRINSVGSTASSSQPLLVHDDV
T3 sequence (P09769 whole entry): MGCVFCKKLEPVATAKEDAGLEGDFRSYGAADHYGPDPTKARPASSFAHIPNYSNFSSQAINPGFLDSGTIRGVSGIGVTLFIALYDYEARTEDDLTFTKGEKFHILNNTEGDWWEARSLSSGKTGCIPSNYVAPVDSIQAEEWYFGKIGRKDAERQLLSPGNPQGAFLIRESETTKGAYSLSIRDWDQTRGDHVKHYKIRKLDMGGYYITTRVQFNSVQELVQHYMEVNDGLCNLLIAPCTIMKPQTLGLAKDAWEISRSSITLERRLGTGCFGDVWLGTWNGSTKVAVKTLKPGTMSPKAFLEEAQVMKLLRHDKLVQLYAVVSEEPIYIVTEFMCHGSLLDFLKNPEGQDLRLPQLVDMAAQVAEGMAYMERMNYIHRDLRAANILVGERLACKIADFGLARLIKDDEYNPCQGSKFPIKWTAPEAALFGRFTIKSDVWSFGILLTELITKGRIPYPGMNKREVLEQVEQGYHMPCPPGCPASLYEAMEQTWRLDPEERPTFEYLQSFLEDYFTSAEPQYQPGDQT

## C=CC(=O)N1CCC[C@@H](n2nc(-c3ccc(Oc4ccccc4)cc3)c3c(N)ncnc32)C1 [Compound 1g, Ibrutinib, reference compound]
ABL2; @1000nM, read-out: %Control
  remaining binding at 1 µM: 41%
ABL2; read-out: %Control @1000nM
  remaining binding at 1 µM: 41%
[1]; @1000nM, read-out: %Control
  remaining binding at 1 µM: 94%
[1]; read-out: %Control @1000nM
  remaining binding at 1 µM: 94%
FLT3(ITD)
  %Control @1000nM: 72%
FLT3(ITD); @1000nM
  %Control: 72%
FGR
  %Control @1000nM: 5.3%
FGR; @1000nM
  %Control: 5.3%
PDGFRB; @1000nM, read-out: %Control
  remaining binding at 1 µM: 25%
PDGFRB; read-out: %Control @1000nM
  remaining binding at 1 µM: 25%
EPHA1; @1000nM, read-out: %Control
  remaining binding at 1 µM: 72%
EPHA1; read-out: %Control @1000nM
  remaining binding at 1 µM: 72%
FGFR2; @1000nM, read-out: %Control
  remaining binding at 1 µM: 39%
FGFR2; read-out: %Control @1000nM
  remaining binding at 1 µM: 39%
[2]; @1000nM, read-out: %Control
  remaining binding at 1 µM: 100%
[2]; read-out: %Control @1000nM
  remaining binding at 1 µM: 100%
FYN; @1000nM, read-out: %Control
  remaining binding at 1 µM: 9.6%
FYN; read-out: %Control @1000nM
  remaining binding at 1 µM: 9.6%
KIT(D816V); @1000nM, read-out: %Control
  remaining binding at 1 µM: 86%
KIT(D816V); read-out: %Control @1000nM
  remaining binding at 1 µM: 86%
ROS1; @1000nM, read-out: %Control
  remaining binding at 1 µM: 97%
ROS1; read-out: %Control @1000nM
  remaining binding at 1 µM: 97%
ABL1-phosphorylated; @1000nM, read-out: %Control
  remaining binding at 1 µM: 60%
ABL1-phosphorylated; read-out: %Control @1000nM
  remaining binding at 1 µM: 60%

## Cc1cnc(S(C)(=O)=O)nc1N1CCCC(n2nc(-c3ccc(Oc4ccccc4)cc3)c3c(N)ncnc32)C1 (stereo not drawn) [Compound 8a, 1-(1-(5-Methyl-2-(methylsulfonyl)pyrimidin-4-yl)piperidin-3-yl)-3-(4-phenoxyphenyl)-1H-pyrazolo[3,4-d]pyrimidin-4-amine]
ABL2; @1000nM
  difference in %Control from reference compound Ib at 1 µM: 29%
ABL2; @1000nM, read-out: %Control
  remaining binding at 1 µM: 70%
ABL2; read-out: %Control @1000nM
  remaining binding at 1 µM: 70%
EGFR(L858R,T790M); @1000nM
  difference in % of control versus compound Ib at 1 µM: 81%
EGFR(L858R,T790M); @1000nM, read-out: %Control
  remaining binding at 1 µM: 91%
EGFR(L858R,T790M); read-out: %Control @1000nM
  remaining binding at 1 µM: 91%
[1]; @1000nM
  difference in %Control versus compound Ib at 1 µM: 0%
[1]; @1000nM, read-out: %Control
  remaining binding at 1 µM: 94%
[1]; read-out: %Control @1000nM
  remaining binding at 1 µM: 94%
FLT3(ITD)
  %Control @1000nM: 91%
FLT3(ITD); @1000nM
  % difference (compound - Ib %Control): 19%
  %Control: 91%
FGR; @1000nM
  difference in %Control versus compound Ib at 1 µM: 3.3%
FGR; @1000nM, read-out: %Control
  remaining binding at 1 µM: 8.6%
FGR; read-out: %Control @1000nM
  remaining binding at 1 µM: 8.6%
PDGFRB; @1000nM, read-out: %Control
  remaining binding at 1 µM: 27%
PDGFRB; read-out: %Control @1000nM
  remaining binding at 1 µM: 27%
EPHA1; @1000nM
  difference in %Control versus compound Ib at 1 µM: 9%
EPHA1; @1000nM, read-out: %Control
  remaining binding at 1 µM: 81%
EPHA1; read-out: %Control @1000nM
  remaining binding at 1 µM: 81%
FGFR2; @1000nM
  difference in %Control vs compound Ib at 1 µM: 46%
FGFR2; @1000nM, read-out: %Control
  remaining binding at 1 µM: 85%
FGFR2; read-out: %Control @1000nM
  remaining binding at 1 µM: 85%
[2]; @1000nM
  difference in %Control vs compound Ib at 1 µM: -13%
[2]; @1000nM, read-out: %Control
  remaining binding at 1 µM: 87%
[2]; read-out: %Control @1000nM
  remaining binding at 1 µM: 87%
YES; @1000nM, read-out: %Control
  remaining binding at 1 µM: 8.1%
YES; read-out: %Control @1000nM
  remaining binding at 1 µM: 8.1%
EGFR(S752-I759del); @1000nM
  difference in %Control versus compound Ib at 1 µM: 98%
EGFR(S752-I759del); @1000nM, read-out: %Control
  remaining binding at 1 µM: 100%
EGFR(S752-I759del); read-out: %Control @1000nM
  remaining binding at 1 µM: 100%
FYN; @1000nM
  difference in % of control versus compound Ib at 1 µM: 7.4%
FYN; @1000nM, read-out: %Control
  remaining binding at 1 µM: 17%
FYN; read-out: %Control @1000nM
  remaining binding at 1 µM: 17%
KIT(D816V); @1000nM, read-out: %Control
  remaining binding at 1 µM: 74%
KIT(D816V); read-out: %Control @1000nM
  remaining binding at 1 µM: 74%
ROS1; @1000nM, read-out: % difference (compound - Ib %Control)
  %Control difference versus reference Ib at 1 µM: -4%
ROS1; @1000nM, read-out: %Control
  remaining binding at 1 µM: 93%
ROS1; read-out: %Control @1000nM
  remaining binding at 1 µM: 93%
ABL1-phosphorylated; @1000nM
  difference in %Control from compound Ib at 1 µM: 20%
ABL1-phosphorylated; @1000nM, read-out: %Control
  remaining binding at 1 µM: 80%
ABL1-phosphorylated; read-out: %Control @1000nM
  remaining binding at 1 µM: 80%
